# Assay results taken from patent US9353091B2 (priority 2009, dated 2016).
# What was measured:
# [1] = target: T1, HCV polymerase 1A (Δ21 NS5B) (Hepatitis C virus genotype 1a, UniProt P27958); test: HCV Polymerase Inhibition Assay (1a); format: biochemical
# T1 construct: 20 to 50 nM Δ21 NS5B
# Protocol: (§1) Reaction volume was 50 μL. The reaction was terminated by the addition of 1 volume of 4 mM spermine in 10 mM Tris-Cl pH 8.0, 1 mM EDTA. After incubation for at least 15 minutes at room temperature, the precipitated RNA was captured by filtering through a GF/B filter (Millipore) in a 96 well format. The filter plate was washed three times with 200 μL, each of 2 mM spermine, 10 mM Tris-Cl pH 8.0, 1 mM EDTA, and 2 times with ethanol. After air-drying, 30 μL, of Microscint 20 scintillation cocktail (Packard) was added to each well, and the retained cpm were determined by scintillation counting. […] Retained cpm were plotted vs. inhibitor concentration and fit to equation 1 using non-linear regression (ref. 1) to obtain the IC50 values: Retained cpm=A[sqrt{(IC50+It−Et)^2+4*IC50*Et}−(IC50+It−Et)]
# (§2) Ref. Morrison, J. F. and S. R. Stone. 1985. Approaches to the study and analysis of the inhibition of enzymes by slow- and tight-binding inhibitors. Comments Mol. Cell. Biophys. 2: 347-368.
# (§3) The sequence of the template RNA used was: 5′-[…] […] […] […] […] […] […] […] […] […] […] […] […] […] […] […] […]-3′ (SEQ ID NO: 1)
# [2] = target: T2, HCV polymerase 1B (Δ21 NS5B) (Hepatitis C virus genotype 1b, UniProt P26663); test: HCV Polymerase Inhibition Assay (1b); format: biochemical
# T2 construct: 20 to 50 nM Δ21 NS5B
# T2 sequence (P26663 2420-2989, stated change not applied): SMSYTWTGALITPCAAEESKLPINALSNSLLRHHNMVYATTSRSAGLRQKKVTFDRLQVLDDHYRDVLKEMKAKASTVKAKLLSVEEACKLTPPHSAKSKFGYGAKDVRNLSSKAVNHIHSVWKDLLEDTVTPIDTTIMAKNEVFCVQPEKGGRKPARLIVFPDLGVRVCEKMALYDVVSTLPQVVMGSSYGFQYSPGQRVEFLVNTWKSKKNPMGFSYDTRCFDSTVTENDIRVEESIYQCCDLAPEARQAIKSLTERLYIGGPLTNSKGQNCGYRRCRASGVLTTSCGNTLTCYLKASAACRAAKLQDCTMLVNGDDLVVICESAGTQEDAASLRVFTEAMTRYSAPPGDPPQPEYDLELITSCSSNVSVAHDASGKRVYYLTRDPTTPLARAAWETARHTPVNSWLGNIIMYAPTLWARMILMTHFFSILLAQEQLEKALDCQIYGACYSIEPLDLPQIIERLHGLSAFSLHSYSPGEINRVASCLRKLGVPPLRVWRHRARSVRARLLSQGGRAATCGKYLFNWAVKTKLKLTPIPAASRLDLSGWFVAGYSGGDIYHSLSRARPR
# Protocol: as §1, §2, §3
# [3] = tested on: genotype 1a-H77 subgenomic replicon cell line; test: HCV Polymerase Replicon Assay (genotype 1a-H77, luciferase reporter); format: cell-based; conditions: Hepatitis C virus, 72 h, 1a-H77 replicon, three days
# [4] = tested on: genotype 1b-Con1 subgenomic replicon cell line; test: HCV Polymerase Replicon Assay (genotype 1b-Con1, luciferase reporter); format: cell-based; conditions: Hepatitis C virus, 72 h, 1b-Con1 replicon, three days
# T1 sequence (P27958 2421-2990, stated change not applied): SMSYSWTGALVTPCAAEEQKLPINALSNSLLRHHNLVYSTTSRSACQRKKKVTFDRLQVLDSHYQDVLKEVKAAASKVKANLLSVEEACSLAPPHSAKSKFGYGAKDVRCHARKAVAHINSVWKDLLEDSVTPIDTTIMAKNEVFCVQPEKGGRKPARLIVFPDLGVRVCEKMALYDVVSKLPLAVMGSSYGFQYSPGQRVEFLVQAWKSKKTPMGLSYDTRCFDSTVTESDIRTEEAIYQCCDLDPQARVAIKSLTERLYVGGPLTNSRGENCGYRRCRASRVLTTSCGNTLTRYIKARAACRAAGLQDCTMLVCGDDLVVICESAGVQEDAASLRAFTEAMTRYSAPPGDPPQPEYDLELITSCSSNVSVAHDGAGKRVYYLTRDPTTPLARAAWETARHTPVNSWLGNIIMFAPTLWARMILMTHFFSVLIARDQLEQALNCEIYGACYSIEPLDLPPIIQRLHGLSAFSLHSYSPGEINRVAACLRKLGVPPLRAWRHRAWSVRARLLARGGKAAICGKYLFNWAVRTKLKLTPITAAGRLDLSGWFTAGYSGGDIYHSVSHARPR
SMILES,IC50 [1] [nM],IC50 [2] [nM],EC50 [3] [nM],EC50 [4] [nM]
"COc1c(-c2ccc3c(c2)CC=C3CNS(C)(=O)=O)cc(-c2c[nH]c(=O)[nH]c2=O)cc1C(C)(C)C [compound 3, N-((6-(3-tert-butyl-5-(2,4-dioxo-1,2,3,4-tetrahydropyrimidin-5-yl)-2-methoxyphenyl)-1H-inden-3-yl)methyl)methanesulfonamide]",< 10,< 10,≤ 10,≤ 10
"COc1c(-c2ccc3cc(NS(C)(=O)=O)ccc3c2)cc(-c2c[nH]c(=O)[nH]c2=O)cc1C(F)(F)C(F)(F)F [compound 37, N-(6-(5-(2,4-dioxo-1,2,3,4-tetrahydropyrimidin-5-yl)-2-methoxy-3-(perfluoroethyl)phenyl)naphthalen-2-yl)methanesulfonamide]",< 10,10 to 100,100 to 1000,10 to 100
"CC(C)(C)c1cc(-c2c[nH]c(=O)[nH]c2=O)cc(-c2ccc3cc(NS(C)(=O)=O)ccc3c2)c1N [compound 33, N-(6-(2-amino-3-tert-butyl-5-(2,4-dioxo-1,2,3,4-tetrahydropyrimidin-5-yl)phenyl)naphthalen-2-yl)methanesulfonamide]",< 10,10 to 100,100 to 1000,10 to 100
"COc1c(-c2ccsc2)cc(-c2c[nH]c(=O)[nH]c2=O)cc1-c1ccc2cc(NS(C)(=O)=O)ccc2c1 [compound 43, N-(6-(5-(2,4-dioxo-1,2,3,4-tetrahydropyrimidin-5-yl)-2-methoxy-3-(thiophen-3-yl)phenyl)naphthalen-2-yl)methanesulfonamide]",< 10,< 10,100 to 1000,10 to 100
"COc1c(-c2ccc3c(c2)CC=C3CNS(C)(=O)=O)cc(-c2cn(S(C)(=O)=O)c(=O)[nH]c2=O)cc1C(F)(F)F [compound 52, N-((6-(2-methoxy-5-(1-(methylsulfonyl)-2,4-dioxo-1,2,3,4-tetrahydropyrimidin-5-yl)-3-(trifluoromethyl)phenyl)-1H-inden-3-yl)methyl)methanesulfonamide]",10 to 100,10 to 100,100 to 1000,≤ 10
"COc1c(-c2ccoc2)cc(-c2c[nH]c(=O)[nH]c2=O)cc1-c1ccc2cc(NS(C)(=O)=O)ccc2c1 [compound 38, N-(6-(5-(2,4-dioxo-1,2,3,4-tetrahydropyrimidin-5-yl)-3-(furan-3-yl)-2-methoxyphenyl)naphthalen-2-yl)methanesulfonamide]",< 10,10 to 100,100 to 1000,10 to 100
"COc1c(-c2ccc3c(c2)CC=C3CNS(C)(=O)=O)cc(-c2cn(C)c(=O)[nH]c2=O)cc1C(C)(C)C [compound 6, N-((6-(3-tert-butyl-2-methoxy-5-(1-methyl-2,4-dioxo-1,2,3,4-tetrahydropyrimidin-5-yl)phenyl)-1H-inden-3-yl)methyl)methanesulfonamide]",< 10,10 to 100,100 to 1000,≤ 10
"CC(C)(C)c1cc(-c2c[nH]c(=O)[nH]c2=O)cc(-c2ccc3cc(NS(C)(=O)=O)ccc3c2)c1I [compound 34, N-(6-(3-tert-butyl-5-(2,4-dioxo-1,2,3,4-tetrahydropyrimidin-5-yl)-2-iodophenyl)naphthalen-2-yl)methanesulfonamide]",< 10,10 to 100,100 to 1000,10 to 100
"COc1c(-c2ccc3cc(NS(C)(=O)=O)ccc3c2)cc(N2CC(=O)NC2=O)cc1C(C)(C)C [compound 16, N-(6-(3-tert-butyl-5-(2,4-dioxoimidazolidin-1-yl)-2-methoxyphenyl)naphthalen-2-yl)methanesulfonamide]",10 to 100,10 to 100,100 to 1000,100 to 1000
"COc1c(-c2ccc3c(c2)CCC3O)cc(-c2c[nH]c(=O)[nH]c2=O)cc1C(C)(C)C (stereo not shown) [compound 13, 5-(3-tert-butyl-5-(1-hydroxy-2,3-dihydro-1H-inden-5-yl)-4-methoxyphenyl)pyrimidine-2,4(1H,3H)-dione]",100 to 1000,100 to 1000,> 1000,> 1000
"COc1c(-c2ccc3cc(NS(C)(=O)=O)ccc3c2)cc(-c2c[nH]c(=O)[nH]c2=O)cc1-c1cccs1 [compound 39, N-(6-(5-(2,4-dioxo-1,2,3,4-tetrahydropyrimidin-5-yl)-2-methoxy-3-(thiophen-2-yl)phenyl)naphthalen-2-yl)methanesulfonamide]",< 10,< 10,10 to 100,≤ 10
"COc1c(-c2ccc3cc(NS(C)(=O)=O)ccc3c2)cc(NC(N)=O)cc1C(C)(C)C [compound 14, N-(6-(3-tert-butyl-2-methoxy-5-ureidophenyl)naphthalen-2-yl)methanesulfonamide]",< 10,10 to 100,100 to 1000,10 to 100
"CCOC(=O)CCNC(=O)Nc1cc(-c2ccc3cc(NS(C)(=O)=O)ccc3c2)c(OC)c(C(C)(C)C)c1 [compound 21, ethyl 3-(3-(3-tert-butyl-4-methoxy-5-(6-(methylsulfonamido)naphthalen-2-yl)phenyl)ureido)propanoate]",100 to 1000,> 1000,100 to 1000,100 to 1000
"COc1c(-c2ccc3cc(NS(C)(=O)=O)ccc3c2)cc(NC(C)=O)cc1C(C)(C)C [compound 47, N-(3-tert-butyl-4-methoxy-5-(6-(methylsulfonamido)naphthalen-2-yl)phenyl)acetamide]",100 to 1000,> 1000,> 1000,100 to 1000
"COc1c(-c2ccc3cc(NS(C)(=O)=O)ccc3c2)cc(-n2ccccc2=O)cc1C(C)(C)C [compound 30, N-(6-(3-tert-butyl-2-methoxy-5-(2-oxopyridin-1(2H)-yl)phenyl)naphthalen-2-yl)methanesulfonamide]",10 to 100,10 to 100,100 to 1000,10 to 100
"COc1c(-c2ccc3cc(NS(C)(=O)=O)ccc3c2)cc(N2C(=O)CN=C2O)cc1C(C)(C)C [compound 15, N-(6-(3-tert-butyl-5-(2-hydroxy-5-oxo-4,5-dihydro-1H-imidazol-1-yl)-2-methoxyphenyl)naphthalen-2-yl)methanesulfonamide]",< 10,10 to 100,100 to 1000,10 to 100
"COc1c(-c2ccc(/C=N/NS(C)(=O)=O)cc2)cc(N2CCCS2(=O)=O)cc1C(C)(C)C [compound 45, (E)-N′-((3′-tert-butyl-5′-(2-(1,1-dioxidoisothiazolidin-2-yl))-2′ methoxybiphenyl-4-yl)methylene)methanesulfonylhydrazide]",100 to 1000,100 to 1000,> 1000,100 to 1000
"COc1c(-c2ccc3cc(NS(C)(=O)=O)ccc3c2)cc(N2CCCS2(=O)=O)cc1C(C)(C)C [compound 46, N-(6-(3-tert-butyl-5-(2-(1,1-dioxidoisothiazolidin-2-yl))-2-methoxyphenyl)naphthalene-2-yl)methanesulfonamide]",10 to 100,10 to 100,100 to 1000,10 to 100
"COc1c(/C=C/c2ccc(NS(C)(=O)=O)cc2)cc(-c2c[nH]c(=O)[nH]c2=O)cc1C(F)(F)F [compound 50, (E)-N-(4-(5-(2,4-dioxo-1,2,3,4-tetrahydropyrimidin-5-yl)-2-methoxy-3-(trifluoromethyl)styryl)phenyl)methanesulfonamide]",10 to 100,10 to 100,100 to 1000,10 to 100
"COc1c(-c2ccc3cc(NS(C)(=O)=O)ccc3c2)cc(-c2ccc[nH]c2=O)cc1C(C)(C)C [compound 9, N-(6-(3-tert-butyl-2-methoxy-5-(2-oxo-1,2-dihydropyridin-3-yl)phenyl)naphthalen-2-yl)methanesulfonamide]",< 10,10 to 100,≤ 10,≤ 10
"COc1c(-c2ccc3cc(NS(C)(=O)=O)ccc3c2)cc(-c2ccc(=O)[nH]c2)cc1C(C)(C)C [compound 10, N-(6-(3-tert-butyl-2-methoxy-5-(6-oxo-1,6-dihydropyridin-3-yl)phenyl)naphthalen-2-yl)methanesulfonamide]",100 to 1000,> 1000,100 to 1000,> 1000
"COc1c(-c2ccc3c(CNS(C)(=O)=O)csc3c2)cc(-c2c[nH]c(=O)[nH]c2=O)cc1C(F)(F)F [compound 51, N-((6-(5-(2,4-dioxo-1,2,3,4-tetrahydropyrimidin-5-yl)-2-methoxy-3-(trifluoromethyl)phenyl)benzo[b]thiophen-3-yl)methyl)methanesulfonamide]",< 10,10 to 100,100 to 1000,10 to 100
